Tests used:
[1] = biological target: GluN1/GluN2A (Rattus norvegicus, UniProt Q00959); assay: Two electrode voltage clamp recordings, Xenopus laevis oocytes; assay type: cell-based; conditions: 100 µM glutamate, 30 µM glycine
[2] = biological target: GluN1/GluN2B (Rattus norvegicus, UniProt Q00960); assay: as above; assay type: cell-based; conditions: 100 µM glutamate, 30 µM glycine
[3] = biological target: GluA1 (Rattus norvegicus, UniProt P19490); assay: as above; assay type: cell-based; conditions: co-applied with 100 µM glutamate
[4] = biological target: GluK2 (Rattus norvegicus, UniProt P42260); assay: as above; assay type: cell-based; conditions: co-applied with 100 µM glutamate
[5] = test system: GluN2C/D-containing NMDA receptors; assay: Potentiation of NMDA receptors, results stated jointly for both subtypes; assay type: cell-based, rat
[6] = biological target: GluN1/GluN2C (Rattus norvegicus, UniProt Q00961); assay: Two electrode voltage clamp recordings, Xenopus laevis oocytes; assay type: cell-based; conditions: for activity at GluN1/GluN2C: 100 µM glutamate, 30 µM glycine
[7] = biological target: GluN1/GluN2D (Rattus norvegicus, UniProt Q62645); assay: as above; assay type: cell-based; conditions: for activity at GluN1/GluN2D: 100 µM glutamate, 30 µM glycine
[8] = 10 µM compound co-applied with 100 µM glutamate and 30 µM glycine

Sequence of GluN1/GluN2A (Q00959 23-1464, other chains not shown): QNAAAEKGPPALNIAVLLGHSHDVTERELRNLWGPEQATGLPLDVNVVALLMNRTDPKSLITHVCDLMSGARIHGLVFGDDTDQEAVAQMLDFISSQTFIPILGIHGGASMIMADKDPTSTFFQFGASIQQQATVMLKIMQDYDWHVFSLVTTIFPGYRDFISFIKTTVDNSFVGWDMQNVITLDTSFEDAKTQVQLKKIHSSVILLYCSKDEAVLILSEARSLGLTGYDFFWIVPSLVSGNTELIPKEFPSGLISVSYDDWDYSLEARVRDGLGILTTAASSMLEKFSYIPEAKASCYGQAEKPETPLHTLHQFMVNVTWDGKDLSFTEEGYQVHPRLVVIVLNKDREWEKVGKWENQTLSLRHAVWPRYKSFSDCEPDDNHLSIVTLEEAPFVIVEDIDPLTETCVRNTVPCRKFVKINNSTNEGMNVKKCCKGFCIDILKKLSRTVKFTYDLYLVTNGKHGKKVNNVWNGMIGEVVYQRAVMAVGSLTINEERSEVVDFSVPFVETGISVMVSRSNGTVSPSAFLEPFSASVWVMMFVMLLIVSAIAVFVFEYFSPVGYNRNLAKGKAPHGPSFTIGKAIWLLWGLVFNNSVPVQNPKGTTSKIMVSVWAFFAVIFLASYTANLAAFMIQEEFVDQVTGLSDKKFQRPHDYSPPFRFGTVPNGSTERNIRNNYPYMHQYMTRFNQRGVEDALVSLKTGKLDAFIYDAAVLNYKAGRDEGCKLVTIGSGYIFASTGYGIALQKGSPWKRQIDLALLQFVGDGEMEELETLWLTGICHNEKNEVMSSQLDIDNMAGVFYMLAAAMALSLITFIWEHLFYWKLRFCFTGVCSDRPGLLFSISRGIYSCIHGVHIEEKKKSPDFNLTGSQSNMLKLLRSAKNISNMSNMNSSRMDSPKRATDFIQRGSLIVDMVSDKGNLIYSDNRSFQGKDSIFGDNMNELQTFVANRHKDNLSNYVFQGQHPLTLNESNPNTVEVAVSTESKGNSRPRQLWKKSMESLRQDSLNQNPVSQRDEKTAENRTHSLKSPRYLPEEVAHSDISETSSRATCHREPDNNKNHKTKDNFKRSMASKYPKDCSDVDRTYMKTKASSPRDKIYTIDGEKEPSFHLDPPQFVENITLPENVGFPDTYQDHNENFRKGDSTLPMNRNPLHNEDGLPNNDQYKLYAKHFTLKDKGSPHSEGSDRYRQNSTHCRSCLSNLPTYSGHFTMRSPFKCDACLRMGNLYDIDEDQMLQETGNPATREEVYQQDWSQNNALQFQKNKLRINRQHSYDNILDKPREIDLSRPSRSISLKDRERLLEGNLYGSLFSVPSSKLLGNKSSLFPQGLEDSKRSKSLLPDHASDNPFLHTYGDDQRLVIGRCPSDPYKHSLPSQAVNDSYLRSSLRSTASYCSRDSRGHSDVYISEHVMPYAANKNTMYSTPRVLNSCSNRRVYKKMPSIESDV
Sequence of GluN1/GluN2C (Q00961 20-1237, other chains not shown): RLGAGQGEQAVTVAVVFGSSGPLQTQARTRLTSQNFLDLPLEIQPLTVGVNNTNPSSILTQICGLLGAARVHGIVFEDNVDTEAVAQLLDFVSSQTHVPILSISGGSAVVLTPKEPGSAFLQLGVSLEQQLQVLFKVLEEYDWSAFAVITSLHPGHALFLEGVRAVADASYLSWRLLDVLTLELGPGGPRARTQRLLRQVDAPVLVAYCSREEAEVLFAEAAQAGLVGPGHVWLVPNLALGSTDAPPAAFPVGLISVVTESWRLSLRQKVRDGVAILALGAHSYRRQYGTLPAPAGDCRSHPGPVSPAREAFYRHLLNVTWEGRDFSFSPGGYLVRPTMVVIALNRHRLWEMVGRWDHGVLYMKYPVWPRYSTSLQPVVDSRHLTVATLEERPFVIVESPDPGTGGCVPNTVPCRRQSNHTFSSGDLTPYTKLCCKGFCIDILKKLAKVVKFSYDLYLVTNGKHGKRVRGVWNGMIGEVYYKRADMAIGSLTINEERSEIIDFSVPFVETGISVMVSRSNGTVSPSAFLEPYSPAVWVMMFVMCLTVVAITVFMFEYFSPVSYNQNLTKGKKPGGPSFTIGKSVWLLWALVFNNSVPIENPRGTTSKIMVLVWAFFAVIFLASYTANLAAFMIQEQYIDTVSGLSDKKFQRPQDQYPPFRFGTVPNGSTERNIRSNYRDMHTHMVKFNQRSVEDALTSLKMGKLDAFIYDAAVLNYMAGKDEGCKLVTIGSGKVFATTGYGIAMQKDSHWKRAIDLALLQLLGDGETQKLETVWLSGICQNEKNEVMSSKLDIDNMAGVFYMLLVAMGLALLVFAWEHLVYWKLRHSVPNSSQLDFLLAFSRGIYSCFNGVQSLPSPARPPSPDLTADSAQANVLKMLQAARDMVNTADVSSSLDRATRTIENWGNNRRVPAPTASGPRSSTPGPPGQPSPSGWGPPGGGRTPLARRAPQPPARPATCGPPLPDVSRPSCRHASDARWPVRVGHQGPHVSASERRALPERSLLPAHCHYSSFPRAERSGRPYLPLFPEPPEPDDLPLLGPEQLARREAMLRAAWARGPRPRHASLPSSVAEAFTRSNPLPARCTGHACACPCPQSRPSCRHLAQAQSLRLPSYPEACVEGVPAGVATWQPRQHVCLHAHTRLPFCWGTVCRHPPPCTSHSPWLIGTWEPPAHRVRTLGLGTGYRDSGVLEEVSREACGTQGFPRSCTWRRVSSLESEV
Sequence of GluK2 (P42260 32-908): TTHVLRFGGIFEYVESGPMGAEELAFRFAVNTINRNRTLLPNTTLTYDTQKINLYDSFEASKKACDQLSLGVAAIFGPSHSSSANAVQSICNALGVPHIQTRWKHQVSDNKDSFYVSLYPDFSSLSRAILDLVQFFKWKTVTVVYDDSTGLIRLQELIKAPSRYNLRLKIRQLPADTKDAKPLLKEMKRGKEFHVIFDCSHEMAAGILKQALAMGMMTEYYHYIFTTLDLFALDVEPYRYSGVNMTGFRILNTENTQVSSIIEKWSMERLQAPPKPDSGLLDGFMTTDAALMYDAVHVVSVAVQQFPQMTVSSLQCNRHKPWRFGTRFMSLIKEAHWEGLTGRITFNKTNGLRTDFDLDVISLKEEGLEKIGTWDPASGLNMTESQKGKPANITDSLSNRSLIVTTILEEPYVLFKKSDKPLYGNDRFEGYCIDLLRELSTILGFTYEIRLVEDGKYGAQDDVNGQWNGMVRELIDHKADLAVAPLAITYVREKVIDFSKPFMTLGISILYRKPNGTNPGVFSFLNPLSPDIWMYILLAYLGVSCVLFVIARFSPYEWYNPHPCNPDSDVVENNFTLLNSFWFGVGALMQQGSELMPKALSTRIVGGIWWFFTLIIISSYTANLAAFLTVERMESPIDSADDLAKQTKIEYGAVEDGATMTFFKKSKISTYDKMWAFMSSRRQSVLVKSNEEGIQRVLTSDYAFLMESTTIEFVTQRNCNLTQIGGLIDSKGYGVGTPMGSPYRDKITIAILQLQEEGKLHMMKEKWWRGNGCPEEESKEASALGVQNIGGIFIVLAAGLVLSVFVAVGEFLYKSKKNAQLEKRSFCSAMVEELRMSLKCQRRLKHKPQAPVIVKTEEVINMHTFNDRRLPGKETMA
Sequence of GluA1 (P19490 19-907): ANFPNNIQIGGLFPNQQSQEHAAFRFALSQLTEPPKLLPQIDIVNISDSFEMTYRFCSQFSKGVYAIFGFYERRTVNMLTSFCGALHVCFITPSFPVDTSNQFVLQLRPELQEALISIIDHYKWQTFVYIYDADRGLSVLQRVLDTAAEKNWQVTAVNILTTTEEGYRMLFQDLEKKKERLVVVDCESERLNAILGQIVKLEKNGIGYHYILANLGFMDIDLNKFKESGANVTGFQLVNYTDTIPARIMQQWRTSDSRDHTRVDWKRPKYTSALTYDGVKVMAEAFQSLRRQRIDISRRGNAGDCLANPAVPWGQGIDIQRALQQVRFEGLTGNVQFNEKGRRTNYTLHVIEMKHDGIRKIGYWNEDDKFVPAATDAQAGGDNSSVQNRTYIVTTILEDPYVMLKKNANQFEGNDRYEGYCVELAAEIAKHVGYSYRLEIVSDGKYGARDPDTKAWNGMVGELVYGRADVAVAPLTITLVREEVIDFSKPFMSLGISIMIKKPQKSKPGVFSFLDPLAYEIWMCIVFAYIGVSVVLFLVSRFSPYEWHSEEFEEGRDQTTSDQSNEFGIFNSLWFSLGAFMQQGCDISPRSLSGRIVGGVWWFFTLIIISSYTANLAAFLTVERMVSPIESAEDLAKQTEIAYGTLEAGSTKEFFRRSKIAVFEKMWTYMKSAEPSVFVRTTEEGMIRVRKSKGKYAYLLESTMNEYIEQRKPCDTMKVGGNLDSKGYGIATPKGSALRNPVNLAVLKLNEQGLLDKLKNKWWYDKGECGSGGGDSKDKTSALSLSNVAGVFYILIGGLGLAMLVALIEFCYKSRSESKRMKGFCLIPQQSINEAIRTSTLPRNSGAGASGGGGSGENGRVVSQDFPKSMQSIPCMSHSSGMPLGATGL

| Molecule | effect on GluN1/GluN2A responses [1] | effect on GluN1/GluN2B responses [2] | effect on homomeric GluA1 responses [3] | effect on GluK2-mediated currents [4] | activity at GluN1/GluN2C [6] | activity at GluN1/GluN2D [7] | further results |
| --- | --- | --- | --- | --- | --- | --- | --- |
| COc1ccc(OC[C@@H]2c3cc(OC)c(OC)cc3CCN2C(=O)c2cccc(Cl)c2)cc1 [2-S, (S)-(3-chlorophenyl)(6,7-dimethoxy-1-((4-methoxyphenoxy)methyl)-3,4-dihydroisoquinolin-2(1H)-yl)methanone] | no effect | no effect |  |  |  |  |  |
| COc1ccc(OCC2c3cc(OC)c(OC)cc3CCN2C(=O)c2ccccc2)cc1 (centres unmarked) [compound 1, (6,7-dimethoxy-1-((4-methoxyphenoxy)methyl)-3,4-dihydroisoquinolin-2(1H)-yl)(phenyl)methanone] |  |  | no effects | no effect |  |  | enhancement of response of GluN2C/D-containing NMDA receptors ([5]; maximally effective concentrations of glutamate and glycine): 1.5 fold; agonist activity on their own ([5]; without co-agonists): no agonist activity |
| COc1cc2c(cc1OC)CN(C(=O)c1ccccc1)CC2 [compound 5, (6,7-dimethoxy-3,4-dihydroisoquinolin-2(1H)-yl)(phenyl)methanone] | inactive | inactive | no effects |  | inactive | inactive |  |
| COc1ccc(OCC2c3cc(OC)c(OC)cc3CCN2C(=O)c2cccc(F)c2)cc1 (centres unmarked) [compound 197] |  |  | no effects | no effect |  |  |  |
| COc1ccc(OCC2c3cc(OC)c(OC)cc3CCN2C(=O)c2cccs2)cc1 (centres unmarked) [compound 203] |  |  |  |  | weak activity | no or minimal potentiating effects |  |
| (1-((4-(benzyloxy)phenoxy)methyl)-6,7-dimethoxy-3,4-dihydroisoquinolin-2(1H)-yl)(3-chlorophenyl)methanone [compound 109] |  |  |  |  |  |  | I10 µM / ICONTROL (mean ± SEM, %) GluN2C [6, 8]: 93 ± 1.6%; I10 µM / ICONTROL (mean ± SEM, %) GluN2D [7, 8]: 93 ± 2.5%; activity on GluN2C- or GluN2D-containing receptors [5]: no detectable activity |

The next lines start with results.

| effect on GluN1/GluN2A responses [1] | effect on GluN1/GluN2B responses [2] | effect on homomeric GluA1 responses [3] | effect on GluK2-mediated currents [4] | activity at GluN1/GluN2C [6] | activity at GluN1/GluN2D [7] | Molecule | further results |
| --- | --- | --- | --- | --- | --- | --- | --- |
| inactive | inactive |  |  | inactive | inactive | COc1cc2c(cc1OC)CN(C(=O)c1cccc(Cl)c1)CC2 [compound 6, (3-chlorophenyl)(6,7-dimethoxy-3,4-dihydroisoquinolin-2(1H)-yl)methanone] |  |
| inactive | inactive |  |  | inactive | inactive | COc1cc2c(cc1OC)CN(C(=O)c1cccc(Br)c1)CC2 [compound 7, (3-bromophenyl)(6,7-dimethoxy-3,4-dihydroisoquinolin-2(1H)-yl)methanone] |  |
|  |  | no effects | no effect |  |  | COc1ccc(OCC2c3cc(OC)c(OC)cc3CCN2C(=O)c2cccc(Br)c2)cc1 (centres unmarked) [compound 190] |  |
|  |  |  |  | weakly active |  | COC(=O)c1ccc(OCC2c3cc(OC)c(OC)cc3CCN2C(=O)c2cccc(Br)c2)cc1 (centres unmarked) [compound 207] |  |

From publication PMC4850841 (Journal of medicinal chemistry, 2013)
